PMC5645785 (Organic & biomolecular chemistry, 2016)
Where two headings read alike, the source gives them in different places.

Legend:
[1] = molecular target: Sucrose synthase 4 (SuSy4) (Solanum tuberosum, UniProt P10691); test: SuSy4 activity, sucrose synthesis direction, absence of UDP; assay type: biochemical, Solanum tuberosum L.
[2] = molecular target: T1, Rabbit muscle GPa (RMGPa) (Oryctolagus cuniculus, UniProt P00489); test: RMGPa activity, glycogen phosphorolysis direction; assay type: biochemical; conditions: read-out: Km of RMGPa
T1 sequence (P00489 1-843): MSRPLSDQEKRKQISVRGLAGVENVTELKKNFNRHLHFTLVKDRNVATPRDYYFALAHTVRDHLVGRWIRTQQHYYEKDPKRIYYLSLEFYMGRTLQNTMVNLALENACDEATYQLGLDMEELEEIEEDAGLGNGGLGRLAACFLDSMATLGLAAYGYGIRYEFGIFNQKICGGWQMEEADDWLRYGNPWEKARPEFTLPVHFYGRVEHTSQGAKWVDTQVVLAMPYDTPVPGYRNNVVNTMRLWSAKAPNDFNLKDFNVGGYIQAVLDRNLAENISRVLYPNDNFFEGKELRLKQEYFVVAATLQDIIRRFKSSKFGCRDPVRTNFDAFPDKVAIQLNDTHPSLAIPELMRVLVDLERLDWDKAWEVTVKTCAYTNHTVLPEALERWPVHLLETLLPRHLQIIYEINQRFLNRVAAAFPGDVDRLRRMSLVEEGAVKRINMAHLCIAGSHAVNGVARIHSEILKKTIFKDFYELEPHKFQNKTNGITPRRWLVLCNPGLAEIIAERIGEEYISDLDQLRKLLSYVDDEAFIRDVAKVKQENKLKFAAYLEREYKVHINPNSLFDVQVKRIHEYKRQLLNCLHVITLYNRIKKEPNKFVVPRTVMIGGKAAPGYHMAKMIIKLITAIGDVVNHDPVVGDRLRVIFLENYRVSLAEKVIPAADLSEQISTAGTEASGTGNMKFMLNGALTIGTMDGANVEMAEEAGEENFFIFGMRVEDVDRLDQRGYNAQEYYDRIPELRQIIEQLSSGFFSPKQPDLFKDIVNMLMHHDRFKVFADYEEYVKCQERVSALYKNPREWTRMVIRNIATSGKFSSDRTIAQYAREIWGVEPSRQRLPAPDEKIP

[3] = molecular target: Escherichia coli GS (EcGS) (Escherichia coli, UniProt P0A6U8); test: EcGS activity, glycogen synthesis direction, absence of ADP; assay type: biochemical
Chain of Escherichia coli GS (EcGS) (P0A6U8 whole entry): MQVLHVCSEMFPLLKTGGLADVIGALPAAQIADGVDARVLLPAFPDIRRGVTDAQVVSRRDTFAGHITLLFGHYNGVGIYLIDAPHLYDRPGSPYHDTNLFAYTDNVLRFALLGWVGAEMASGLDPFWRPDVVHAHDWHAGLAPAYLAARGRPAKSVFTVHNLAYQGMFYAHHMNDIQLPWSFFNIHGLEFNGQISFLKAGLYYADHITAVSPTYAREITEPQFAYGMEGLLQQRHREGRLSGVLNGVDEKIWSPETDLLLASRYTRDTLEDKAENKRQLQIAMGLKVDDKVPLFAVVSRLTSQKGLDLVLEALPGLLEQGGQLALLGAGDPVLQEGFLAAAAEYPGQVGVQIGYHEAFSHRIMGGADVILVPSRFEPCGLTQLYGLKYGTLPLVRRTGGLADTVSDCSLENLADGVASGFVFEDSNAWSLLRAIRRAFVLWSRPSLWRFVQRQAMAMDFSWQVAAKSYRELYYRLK

[4] = tested on: E. coli trehalose-6-phosphate synthase; conditions: cited from earlier work; for IC50: read-out: IC50 trehalose-6-phosphate synthase

Chain of Sucrose synthase 4 (SuSy4) (P10691 whole entry): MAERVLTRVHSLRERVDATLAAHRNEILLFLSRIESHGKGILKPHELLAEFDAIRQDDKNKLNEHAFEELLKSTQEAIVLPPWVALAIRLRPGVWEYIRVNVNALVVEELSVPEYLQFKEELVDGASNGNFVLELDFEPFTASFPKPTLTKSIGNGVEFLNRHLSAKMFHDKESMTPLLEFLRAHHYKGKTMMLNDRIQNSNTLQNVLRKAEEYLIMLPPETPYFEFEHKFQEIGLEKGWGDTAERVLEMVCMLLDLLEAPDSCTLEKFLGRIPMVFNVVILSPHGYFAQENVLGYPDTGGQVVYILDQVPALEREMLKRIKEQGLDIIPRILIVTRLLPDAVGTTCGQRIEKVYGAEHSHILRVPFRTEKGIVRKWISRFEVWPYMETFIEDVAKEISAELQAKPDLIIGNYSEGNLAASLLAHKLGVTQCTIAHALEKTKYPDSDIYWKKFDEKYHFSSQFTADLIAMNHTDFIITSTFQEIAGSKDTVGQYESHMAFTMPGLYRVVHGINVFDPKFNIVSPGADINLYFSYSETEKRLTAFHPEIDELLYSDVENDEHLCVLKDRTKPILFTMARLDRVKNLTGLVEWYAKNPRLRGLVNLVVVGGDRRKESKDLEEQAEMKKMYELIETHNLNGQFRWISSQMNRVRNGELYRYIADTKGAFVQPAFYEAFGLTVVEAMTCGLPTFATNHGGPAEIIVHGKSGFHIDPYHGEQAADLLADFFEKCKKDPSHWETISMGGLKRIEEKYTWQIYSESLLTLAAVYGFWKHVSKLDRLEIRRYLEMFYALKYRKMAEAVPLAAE

O=c1ccn([C@@H]2O[C@H](COP(=O)(O)OP(=O)(O)O)[C@@H](O)[C@H]2O)c(=O)[nH]1 [UDP]
Ki ([1]; read-out: Ki SuSy4, substrate UDPG): 145 ± 48 µM | Type of Inhibition SuSy4 ([1]; with respect to UDPG): Competitive

O=P(O)(O)O [Pi, inorganic phosphate]
Km [2]: 1410 µM

OC[C@H]1NC[C@@H](O)[C@@H]1O [DAB, 1,4-dideoxy-1,4-imino-D-arabinitol]
IC50 [3]: 1320 ± 10 µM | IC50 [1]: 246.5 ± 0.1 µM

validoxylamine-6′-phosphate
improvement of IC50 by UDP ([4]; 0.15 mM UDP): ca. 100 fold | IC50 ([4]; addition of 0.15 mM UDP): 41 µM | IC50 ([4]; without UDP): 5300 µM

Nc1ncnc2c1ncn2[C@@H]1O[C@H](COP(=O)(O)OP(=O)(O)O)[C@@H](O)[C@H]1O [ADP]
Ki ([3]; read-out: Ki EcGS, substrate ADPG): 87 ± 6 µM | Type of Inhibition EcGS ([3]; with respect to ADPG): Competitive

OC[C@@H]1NC[C@H](O)[C@H]1O [LAB]
Activity (%) EcGS ([3]; remaining activity, 0.5 mM inhibitor, 2 mM ADPG and 4 mg mL−1 glycogen): 89% | Activity (%) SuSy4 ([1]; remaining activity, 0.5 mM inhibitor, 5 mM UDPG and 30 mM fructose): 89%
